Values of other authors, collected in US20140127295A1, “COMPOSITIONS, PROCESS OF PREPARATION OF SAID COMPOSITIONS AND METHOD OF TREATING INFLAMMATORY DISEASES” (priority 2011, published 2014).

How the values were obtained:
[1] = in vivo
[2] = in mice

SMILES | Cmax [1] [ng/mL] | Tmax [1] [h] | T½ [1] [h] | maximum tolerated dose [2] [mg/kg]
CCCc1nn(C)c2c(=O)[nH]c(-c3cc(S(=O)(=O)N4CCN(C)CC4)ccc3OCC)nc12 [CW305, 5-[2-ethoxy-5-(4-methylpiperazine-1-sulfonyl)phenyl]-1-methyl-3-propyl-1H,4H,7H-pyrazolo[4,3-d]pyrimidin-7-one] | 440 | 1 | 4 to 5 | 8.5
CCC(C)(C)C(=O)O[C@H]1C[C@@H](C)C=C2C=C[C@H](C)[C@H](CC[C@@H]3C[C@@H](O)CC(=O)O3)[C@H]21 [CW302, (1S,3R,7S,8S,8aR)-8-{2-[(4R)-4-hydroxy-6-oxooxan-2-yl]ethyl}-3,7-dimethyl-1,2,3,7,8,8a-hexahydronaphthalen-1-yl 2,2-dimethylbutanoate] | – | 1.9 | – | –
